Results reported in US20250340522A1, “ALBICIDIN DERIVATIVES, THEIR USE AND SYNTHESIS” (priority 2022, published 2025).
Converted amounts (≈) assume the structure as drawn.

Key:
selected strains = test: Antibacterial activity against selected strains, overall comparison with lead structure (Table 1); format: cell-based; conditions: D-variations in Table 1
Protocol: (§1) The tests were performed using the micro dilution method.
(§2) The determination of MIC values was performed according to the ninth edition of the Approved Standard M07-A9 (CLSI. Methods for Dilution Antimicrobial Susceptibility Tests for Bacteria That Grow Aerobically; Approved Standard-Ninth Edition. CLSI document M07-A9. Wayne, PA: Clinical and Laboratory Standards Institute; 2012.)
The test was carried out for different bacterial strains (E. coli DSM 1116, E. coli BW25113 [gram negative], B. subtilis DSM 10 [gram positive], M. luteus DSM 1790 [gram positive], S. typhimurium TA100 [gram negative]) and M. phlei DSM 750. 20 µL of cryo stock of each strain were inoculated in 20 mL of LB media (Lysogeny broth: 10 g/L peptone, 5 g/L yeast extract, 5 g/L NaCl) followed by incubation over night at 37° C., 200 rpm. The test inoculum was adjusted by the 0.5 McFarland Standard (OD625 from 0.08 to 0.1). […]
Previously the dry antibiotic compounds were dissolved in DMSO (100%) with a concentration of 2560 μg/mL and the resulting stock solutions were further diluted in DMSO (100%). […] Both microdilution trays and agar plates were incubated at 37° C. for 20 h and subsequently analyzed visually.
The potency of an antibiotic is determined by the minimum inhibitory concentration (MIC). […]

S. typhimurium TA100 = test: MIC, microdilution assay (CLSI M07-A9); format: cell-based; conditions: Salmonella enterica, Gram-negativ, MHBII media, 37° C., 20 h, tested 64 to 0.008 μg/mL, read-out: MIC S. Typhimirium
Protocol: as §1, §2
(§3) The test was carried out for different bacterial strains (E. coli DSM 1116, E. coli BW25113 [gram negative], B. subtilis DSM 10 [gram positive], M. luteus DSM 1790 [gram positive], S. typhimurium TA100 [gram negative]) and M. phlei DSM 750. 20 µL of cryo stock of each strain were inoculated in 20 mL of LB media (Lysogeny broth: 10 g/L peptone, 5 g/L yeast extract, 5 g/L NaCl) followed by incubation over night at 37° C., 200 rpm. The test inoculum was adjusted by the 0.5 McFarland Standard (OD625 from 0.08 to 0.1). Within 15 min of preparation, the adjusted inoculum suspension was diluted in MHBII media (BBL TM Mueller-Hinton Broth II, Becton, Dickinson and Company, New Jersey/USA) so that each well contained approximately 5×10^5 CFU/mL in a final volume of 100 μL. 95 μL of the inoculum were applied per well and 5 μL of the (diluted) antibiotic substance were added.
(§4) Previously the dry antibiotic compounds were dissolved in DMSO (100%) with a concentration of 2560 μg/mL and the resulting stock solutions were further diluted in DMSO (100%). […] of each antibiotic dilution were applied to the microdilution tray to reach final concentrations of 64 μg/mL to 0.008 μg/ml. One row of each well plate was left as a growth control without antibiotic substances and another row of the microdilution tray was used as sterility control (only MHB II-media). The antimicrobial effect of the solvent (DMSO) was tested by adding 5 μL DMSO to several wells without antibiotics. Purity check and cell titer control were performed according to International Standard M07-A9 on Mueller-Hinton II Agar (Mueller Hinton II Broth, 15 g/L agar-agar). Both microdilution trays and agar plates were incubated at 37° C. for 20 h and subsequently analyzed visually.
(§5) The potency of an antibiotic is determined by the minimum inhibitory concentration (MIC). Contrary to intuition, a particularly low value is equated with a high potency.

E. coli BW25113 = test: MIC, microdilution assay (CLSI M07-A9); format: cell-based; conditions: Escherichia coli, Gram-negativ, MHBII media, 37° C., 20 h, tested 64 to 0.008 μg/mL
Protocol: as §1, §2, §3, §4, §5

B. subtilis DSM 10 = test: MIC, microdilution assay (CLSI M07-A9); format: cell-based; conditions: Bacillus subtilis, DSM10, Gram-positiv, MHBII media, 37° C., 20 h, tested 64 to 0.008 μg/mL
Protocol: as §1, §2, §3, §4, §5

M. phlei DSM 750 = test: MIC, microdilution assay (CLSI M07-A9); format: cell-based; conditions: Mycolicibacterium phlei, DSM750, MHBII media, 37° C., 20 h, tested 64 to 0.008 μg/mL
Protocol: as §1, §2, §3, §4, §5

[1] = test system: E. Coli. (50% human serum); test: MIC, microdilution assay in presence of 50% human serum; format: cell-based; conditions: Escherichia coli, 20 h, Gram-negativ
Protocol: E. coli BW25113, S. typhimurium TA100; Bacillus subtilis DSM10; and M. phlei DSM 750 and human serum
as §1, §2, §3, §4, §5

Pantoea dispersa = conditions: humans infected with the pathogen; background statement; cited from earlier work
M. luteus DSM 1790 = test: MIC, microdilution assay (CLSI M07-A9); format: cell-based; conditions: Micrococcus luteus, DSM1790, Gram-positiv, MHBII media, 37° C., 20 h, tested 64 to 0.008 μg/mL
Protocol: as §1, §2, §3, §4, §5

Compound | Activity compared with the lead structure (0) (selected strains) | MIC (S. typhimurium TA100) [µg/mL] | MIC (E. coli BW25113) [µg/mL] | MIC (B. subtilis DSM 10) [µg/mL] | MIC (M. phlei DSM 750) [µg/mL] | MIC [1] [µg/mL] | Treatment outcome of Pantoea dispersa infection (Pantoea dispersa) | MIC (M. luteus DSM 1790) [µg/mL]
COc1c(NC(=O)c2ccc(NC(=O)c3ccc(NC(=O)[C@H](Cc4c[nH]nn4)NC(=O)c4ccc(NC(=O)/C(C)=C/c5ccc(O)cc5)cc4)cc3Cl)c(OC)c2O)ccc(C(=O)O)c1O [Compound 3] | about as active as the lead structure (0) | ≤ 0.016 | ≤ 0.016 | 0.063 (≈ 0.0685 µM) | 0.5 (≈ 0.544 µM) | 0.5 | – | –
O=C(O)[C@H]1/C(=C/CO)O[C@@H]2CC(=O)N21 [Clavulanic acid] | – | – | – | – | – | – | ineffective | –
COc1c(NC(=O)c2ccc(NC(=O)c3ccc(NC(=O)[C@H](Cc4c[nH]nn4)NC(=O)c4ccc(NC(=O)/C(C)=C/c5ccc(O)cc5)cc4)cc3I)c(OC)c2O)ccc(C(=O)O)c1O [Compound 8] | – | 0.031 (≈ 0.0307 µM) | 0.063 (≈ 0.0623 µM) | 0.5 (≈ 0.495 µM) | 4 (≈ 3.96 µM) | ≥ 8 | – | 4 (≈ 3.96 µM)
COc1c(NC(=O)c2ccc(NC(=O)c3ccc(NC(=O)[C@H](Cc4c[nH]nn4)NC(=O)c4ccc(NC(=O)/C(C)=C/c5ccc(O)cc5)cc4)cc3F)c(OC)c2O)ccc(C(=O)O)c1O [Compound 1] | – | ≤ 0.016 | 0.016 (≈ 0.0177 µM) | 0.125 (≈ 0.138 µM) | 1 (≈ 1.11 µM) | 1 | – | 0.031 (≈ 0.0343 µM)
CN(C)c1cc(NC(=O)CNC(C)(C)C)c(O)c2c1C[C@H]1C[C@H]3[C@H](N(C)C)C(O)=C(C(N)=O)C(=O)[C@@]3(O)C(O)=C1C2=O [tigecycline] | – | – | – | – | – | – | successful | –
COc1c(NC(=O)c2ccc(NC(=O)c3ccc(NC(=O)[C@H](Cc4c[nH]nn4)NC(=O)c4ccc(NC(=O)/C(C)=C/c5ccc(O)cc5)cc4)cn3)c(OC)c2O)ccc(C(=O)O)c1O [Compound 0, reference compound] | – | ≤ 0.016 | ≤ 0.016 | 0.031 (≈ 0.035 µM) | 0.125 (≈ 0.141 µM) | 0.5 | – | 0.031 (≈ 0.035 µM)
colistin | – | – | – | – | – | – | successful | –
COc1c(NC(=O)c2ccc(NC(=O)c3ccc(NC(=O)[C@H](Cc4c[nH]nn4)NC(=O)c4ccc(NC(=O)/C(C)=C/c5ccc(O)cc5)cc4)cc3C(F)(F)F)c(OC)c2O)ccc(C(=O)O)c1O [Compound 5] | – | 0.031 (≈ 0.0325 µM) | 0.125 (≈ 0.131 µM) | 4 (≈ 4.2 µM) | 8 (≈ 8.4 µM) | ≥ 8 | – | 4 (≈ 4.2 µM)
COc1c(NC(=O)c2ccc(NC(=O)c3c(F)cc(NC(=O)[C@H](Cc4c[nH]nn4)NC(=O)c4ccc(NC(=O)/C(C)=C/c5ccc(O)cc5)cc4)cc3F)c(OC)c2O)ccc(C(=O)O)c1O [Compound 2] | about as active as the lead structure (0) | ≤ 0.016 | ≤ 0.016 | 0.125 (≈ 0.136 µM) | 1 (≈ 1.09 µM) | 0.5 | – | 0.25 (≈ 0.271 µM)
COc1c(NC(=O)c2ccc(NC(=O)c3ccc(NC(=O)[C@H](Cc4c[nH]nn4)NC(=O)c4ccc(NC(=O)/C(C)=C/c5ccc(O)cc5)cc4)cc3Br)c(OC)c2O)ccc(C(=O)O)c1O [Compound 6] | – | 0.016 (≈ 0.0166 µM) | 0.016 (≈ 0.0166 µM) | 0.125 (≈ 0.13 µM) | 1 (≈ 1.04 µM) | 1 | – | 0.5 (≈ 0.519 µM)
